Experiments:
Format in all cases: in vivo
Triticum aestivum [1] = test: Preemergence herbicidal activity (Example 67); set-up: herbicide rating, TRZAW: scale not given here; settings: pre; 800 g/ha; rated about 1-3 weeks after treatment
Method: (§1) Herbicidal evaluation of compounds of the invention is conducted on the following plant species:
(§2) The soil is a prepared horticultural substrate containing 30% peat, 20% volcanic clay, 30% bark residues and 20% polyamide/styromull in a 1:3 mixture with loamy sand. Test solutions are prepared by dissolving the test compound in acetone containing 0.5% of an alkylphenol/ethylene oxide condensate under the trademark, TRITON® X-155, and diluting with water as needed. The test solutions are applied as a spray to the 3-6 week old seedling plants at dose rates corresponding to 800g/ha in a volume equivalent to 400 L/ha. A pneumatic spraying device employing a Teejet nozzle SS 8002E operating at 3 bar is used for a predetermined time. After spraying, the treated plants are placed on greenhouse benches and cared for in a manner commensurate with conventional greenhouse practice. After 10-21 days, the treated plants are evaluated and rated according to the rating system provided below.
(§3) The soil surface is then sprayed with test solutions as described in the postemergence evaluation hereinabove. After spraying, the treated cups are placed on greenhouse benches and cared for in the manner commensurate with conventional greenhouse practice. About 1-3 weeks after treatment the cups are evaluated and rated according to the rating system provided hereinabove.

Hordeum vulgare [2] = test: Preemergence herbicidal activity (Example 67); set-up: herbicide rating, HORVW: scale not given here; settings: pre; 800 g/ha; rated about 1-3 weeks after treatment
Method: as §1, §2, §3

Alopecurus myosuroides [3] = test: Preemergence herbicidal activity (Example 67); set-up: herbicide rating, ALOMY: scale not given here; settings: pre; 800 g/ha; rated about 1-3 weeks after treatment
Method: as §1, §2, §3

Setaria viridis [4] = test: Preemergence herbicidal activity (Example 67); set-up: herbicide rating, SETVI: scale not given here; settings: pre; 800 g/ha; rated about 1-3 weeks after treatment
Method: as §1, §2, §3

Abutilon theophrasti [5] = test: Preemergence herbicidal activity (Example 67); settings: pre; 800 g/ha; rated about 1-3 weeks after treatment
Method: as §1, §2, §3

Amaranthus retroflexus [6] = test: Preemergence herbicidal activity (Example 67); settings: pre; 800 g/ha; rated about 1-3 weeks after treatment
Method: as §1, §2, §3

Chenopodium album [7] = test: Preemergence herbicidal activity (Example 67); settings: pre; 800 g/ha; rated about 1-3 weeks after treatment
Method: as §1, §2, §3

Galium aparine [8] = test: Preemergence herbicidal activity (Example 67); settings: pre; 800 g/ha; rated about 1-3 weeks after treatment
Method: as §1, §2, §3

Helianthus annuus [9] = test: Preemergence herbicidal activity (Example 67); settings: pre; 800 g/ha; rated about 1-3 weeks after treatment
Method: as §1, §2, §3

Ipomoea hederacea [10] = test: Preemergence herbicidal activity (Example 67); settings: pre; 800 g/ha; rated about 1-3 weeks after treatment
Method: as §1, §2, §3

Veronica persica [11] = test: Preemergence herbicidal activity (Example 67); settings: pre; 800 g/ha; rated about 1-3 weeks after treatment
Method: as §1, §2, §3

Zea mays [12] = test: Preemergence herbicidal activity (Example 67); settings: pre; 800 g/ha; rated about 1-3 weeks after treatment
Method: as §1, §2, §3

Abutilon theophrasti [13] = test: Postemergence herbicidal activity (Example 67); settings: pos; 800 g/ha; rated after 10-21 days
Method: as §1, §2

Alopecurus myosuroides [14] = test: Postemergence herbicidal activity (Example 67); settings: pos; 800 g/ha; rated after 10-21 days
Method: as §1, §2

Amaranthus retroflexus [15] = test: Postemergence herbicidal activity (Example 67); settings: pos; 800 g/ha; rated after 10-21 days
Method: as §1, §2

Chenopodium album [16] = test: Postemergence herbicidal activity (Example 67); settings: pos; 800 g/ha; rated after 10-21 days
Method: as §1, §2

Galium aparine [17] = test: Postemergence herbicidal activity (Example 67); settings: pos; 800 g/ha; rated after 10-21 days
Method: as §1, §2

Helianthus annuus [18] = test: Postemergence herbicidal activity (Example 67); settings: pos; 800 g/ha; rated after 10-21 days
Method: as §1, §2

Hordeum vulgare [19] = test: Postemergence herbicidal activity (Example 67); settings: pos; 800 g/ha; rated after 10-21 days
Method: as §1, §2

Ipomoea hederacea [20] = test: Postemergence herbicidal activity (Example 67); settings: pos; 800 g/ha; rated after 10-21 days
Method: as §1, §2

Setaria viridis [21] = test: Postemergence herbicidal activity (Example 67); settings: pos; 800 g/ha; rated after 10-21 days
Method: as §1, §2

Triticum aestivum [22] = test: Postemergence herbicidal activity (Example 67); settings: pos; 800 g/ha; rated after 10-21 days
Method: as §1, §2

Veronica persica [23] = test: Postemergence herbicidal activity (Example 67); settings: pos; 800 g/ha; rated after 10-21 days
Method: as §1, §2

Zea mays [24] = test: Postemergence herbicidal activity (Example 67); settings: pos; 800 g/ha; rated after 10-21 days
Method: as §1, §2

| Structure (SMILES) | herbicide rating, TRZAW (Triticum aestivum [1]) | herbicide rating, HORVW (Hordeum vulgare [2]) | herbicide rating, ALOMY (Alopecurus myosuroides [3]) | herbicide rating, SETVI (Setaria viridis [4]) | herbicide rating, ABUTH (Abutilon theophrasti [5]) | herbicide rating, AMARE (Amaranthus retroflexus [6]) | herbicide rating, CHEAL (Chenopodium album [7]) | herbicide rating, GALAP (Galium aparine [8]) | herbicide rating, HELAN (Helianthus annuus [9]) | herbicide rating, IPOHE (Ipomoea hederacea [10]) | herbicide rating, VERPE (Veronica persica [11]) | herbicide rating, ZEAMX (Zea mays [12]) | herbicide rating, ABUTH (Abutilon theophrasti [13]) | herbicide rating, ALOMY (Alopecurus myosuroides [14]) | herbicide rating, AMARE (Amaranthus retroflexus [15]) | herbicide rating, CHEAL (Chenopodium album [16]) | herbicide rating, GALAP (Galium aparine [17]) | herbicide rating, HELAN (Helianthus annuus [18]) | herbicide rating, HORVW (Hordeum vulgare [19]) | herbicide rating, IPOHE (Ipomoea hederacea [20]) | also measured |
| --- | --- | --- | --- | --- | --- | --- | --- | --- | --- | --- | --- | --- | --- | --- | --- | --- | --- | --- | --- | --- | --- |
| CC(NC(=O)c1nsc(-c2cccc(C(F)(F)F)c2)n1)c1cccs1 (racemic) [Example 3, (R/S)-5-(3-Trifluoromethylphenyl)-[1,2,4]thiadiazole-3-carboxylic acid, [1-(2-thienyl)ethyl]amide] | 0 | 0 | 0 | 0 | 0 | 0 | 3 (16-29%) | 0 | 0 | 0 | 0 | 0 | 1 (1-5%) | 3 (16-29%) | 2 (6-15%) | 4 (30-44%) | 2 (6-15%) | 4 (30-44%) | 2 (6-15%) | 3 (16-29%) | herbicide rating, SETVI (Setaria viridis [21]): 8 (91-99%); herbicide rating, TRZAW (Triticum aestivum [22]): 2 (6-15%); herbicide rating, VERPE (Veronica persica [23]): 0; herbicide rating, ZEAMX (Zea mays [24]): 1 (1-5%) |
| CCCCc1nsc(C(=O)NC(C)c2cccs2)n1 (racemic) [Example 25] | 0 | 0 | 0 | 0 | 0 | 0 | 6 (65-79%) | 0 | 0 | 0 | 4 (30-44%) | 0 | 6 (65-79%) | 4 (30-44%) | 3 (16-29%) | 6 (65-79%) | 6 (65-79%) | 7 (80-90%) | 3 (16-29%) | 5 (45-64%) | herbicide rating, SETVI (Setaria viridis [21]): 8 (91-99%); herbicide rating, TRZAW (Triticum aestivum [22]): 2 (6-15%); herbicide rating, VERPE (Veronica persica [23]): 3 (16-29%); herbicide rating, ZEAMX (Zea mays [24]): 0 |
| CC(NC(=O)c1nc(-c2ccc(Cl)cc2)ns1)c1cccs1 (racemic) [Example 26] | 0 | 0 | 0 | 0 | 0 | 0 | 3 (16-29%) | 0 | 0 | 0 | 2 (6-15%) | 0 | 5 (45-64%) | 2 (6-15%) | 6 (65-79%) | 5 (45-64%) | 5 (45-64%) | 7 (80-90%) | 3 (16-29%) | 6 (65-79%) | herbicide rating, SETVI (Setaria viridis [21]): 5 (45-64%); herbicide rating, TRZAW (Triticum aestivum [22]): 2 (6-15%); herbicide rating, VERPE (Veronica persica [23]): 4 (30-44%); herbicide rating, ZEAMX (Zea mays [24]): 4 (30-44%) |
| CC(NC(=O)c1nc(C=Cc2ccccc2)ns1)c1cccs1 (racemic) [Example 29] | 0 | 0 | 0 | 0 | 0 | 0 | 4 (30-44%) | 0 | 0 | 0 | 0 | 0 | 1 (1-5%) | 2 (6-15%) | 1 (1-5%) | 3 (16-29%) | 1 (1-5%) | 4 (30-44%) | 0 | 4 (30-44%) | herbicide rating, SETVI (Setaria viridis [21]): 4 (30-44%); herbicide rating, TRZAW (Triticum aestivum [22]): 0; herbicide rating, VERPE (Veronica persica [23]): 0; herbicide rating, ZEAMX (Zea mays [24]): 0 |

Source: patent EP0726261A1, “Herbidical 1,2,4 thiadiazoles” (American Cyanamid Company, priority 1995, dated 1996)
